# According to publication PMC6680226, “Peptoid Efficacy against Polymicrobial Biofilms Determined by Using Propidium Monoazide‐Modified Quantitative PCR” (Chembiochem, 2016):
# How the values were obtained:
# [1] = tested on: C. albicans (NCTC 3179) biofilm; assay: Crystal violet assay, C. albicans monospecies biofilm; assay type: cell-based, Candida albicans; details: peptoid 100 μM, 24 h treatment of 4 h biofilm; n=3
# Method: (§1) Microorganism strains and growth conditions: C. albicans (NCTC 3179) was subcultured aerobically on Sabouraud agar plates, prepared by using Sabouraud dextrose powder and agar (Oxoid, ThermoFisher) and propagated in yeast peptone dextrose broth. E. coli (ATCC 29522) and S. aureus (NCTC 6571) were grown on blood agar plates (Fanin, Dublin, Ireland) and propagated in brain heart infusion (BHI) broth (Oxoid, ThermoFisher).
# (§2) Preparation and treatment of single‐species biofilms: Overnight cultures of C. albicans were washed and resuspended (1.0×10^6 cells per mL) in RPMI‐1640 (Sigma–Aldrich). Overnight cultures of S. aureus or E. coli were washed and resuspended (5.0×10^6 cells per mL) in BHI broth. Samples (100 μL) were added to microtitre plate wells (Thermo Fisher Scientific), and a biofilm was allowed to form for 4 h. Wells were washed with PBS (3×200 μL) to facilitate removal of planktonic cells, and the biofilms were then treated with 1–18 (100 μM in the appropriate medium). Plates were incubated for a further 24 h to allow biofilm maturation. After removal of planktonic cells by washing, biofilms were quantified by the crystal violet assay or by PMA‐qPCR.
# (§3) Biofilm quantification by crystal violet assay: Washed biofilms were fixed with methanol (100 μL) for 10 min. Following removal of methanol, the wells were air dried and stained with crystal violet solution (Clin‐Tech, Guildford, UK) for 20 min at room temperature. Excess stain was removed by washing, then the plate was air‐dried and bound crystal violet was re‐solubilised in acetic acid (33 %, 160 μL) prior to reading at 570 nm in a GENios microtitre plate reader (Tecan, Zürich, Switzerland).
# [2] = tested on: S. aureus in polymicrobial biofilm with C. albicans; assay: PMA-qPCR, S. aureus within C. albicans-S. aureus polymicrobial biofilm; assay type: cell-based, Staphylococcus aureus; details: PMA-qPCR
# Method: (§4) Preparation and treatment of polymicrobial biofilms: Overnight cultures of C. albicans were prepared in microtitre plates as above, and allowed to adhere for 4 h to facilitate initial biofilm formation. Planktonic C. albicans cells were removed as above before the addition of S. aureus or E. coli (100 μL, 5.0×10^6 cells per mL). Bacteria were allowed to adhere to the C. albicans biofilms for 4 h to facilitate polymicrobial biofilm formation. Following a washing step, the biofilms were then treated with peptoid (10–100 μM), and incubated for a further 24 h to allow biofilm maturation. Wells were washed as above, and the polymicrobial biofilms were quantified by PMA‐modified qPCR.
# Biofilm quantification by PMA‐modified qPCR: In order to determine the bactericidal and fungicidal activity of peptoids against single‐species and polymicrobial biofilms, the biofilms were detached from the microtitre plate wells prior to quantification. The wells were washed as above, then BHI broth (100 μL) was added and the plate was sealed. Biofilm detachment was achieved by sonication for 5 min in an ultrasonic bath (Dawe, Hayes, Middlesex, UK). The remaining cells were then collected in BHI (80 μL). PMA (20 μL, 2 mM in broth;47 Biotium, Fremont, CA) was added to the biofilm suspensions […] and incubated (37 °C, 5 min) prior to photoactivation with a broad‐spectrum LED flood light (60 LED, 0.1 W) placed 15 cm from the tubes (mixed by inversion during the 20 min photoactivation step).48 DNA was extracted by using a microLYSIS‐Plus kit (Microzone, Haywards Heath, UK), and qPCR was performed in a Mx3005P qPCR System (Agilent Technologies).49, 50, 51 See the Tables in the Supporting Information.
# (§5) Generation of standard curves for PMA‐qPCR: For quantification of C. albicans, S. aureus and E. coli in single‐species and polymicrobial biofilms, DNA standards were prepared by extraction of DNA from planktonic organisms with the microLYSIS‐Plus kit and purification with a DNeasy kit (Qiagen). DNA standards (10^1–10^6 cells) were used in PMA‐qPCR assays to generate standard curves from which the numbers of living organisms within the biofilms could be determined.
# [3] = tested on: S. aureus (NCTC 6571) biofilm; assay: Crystal violet assay, S. aureus monospecies biofilm; assay type: cell-based, Staphylococcus aureus; details: peptoid 100 μM, 24 h treatment of 4 h biofilm; n=3
# Method: as §1, §2, §3
# [4] = tested on: S. aureus monospecies biofilm; assay: PMA-qPCR viable cell number, S. aureus monospecies biofilm; assay type: cell-based, Staphylococcus aureus; details: peptoid 100 μM, 24 h; n=3
# Method: as §2
# (§6) Biofilm quantification by PMA‐modified qPCR: In order to determine the bactericidal and fungicidal activity of peptoids against single‐species and polymicrobial biofilms, the biofilms were detached from the microtitre plate wells prior to quantification. The wells were washed as above, then BHI broth (100 μL) was added and the plate was sealed. […]
# (§7) Generation of standard curves for PMA‐qPCR: For quantification of C. albicans, S. aureus and E. coli in single‐species and polymicrobial biofilms, DNA standards were prepared by extraction of DNA from planktonic organisms with the microLYSIS‐Plus kit and purification with a DNeasy kit (Qiagen). […]
# [5] = tested on: E. coli monospecies biofilm; assay: PMA-qPCR viable cell number, E. coli monospecies biofilm; assay type: cell-based, Escherichia coli; details: peptoid 100 μM, 24 h; n=3
# Method: as §2
# as §6, with “sealed. Biofilm detachment was achieved by sonication for 5 min in an ultrasonic bath (Dawe, Hayes, Middlesex, UK). The remaining cells were then collected in BHI (80 μL).” for “sealed.”
# as §5
# [6] = tested on: C. albicans monospecies biofilm; assay: PMA-qPCR viable cell number, C. albicans monospecies biofilm; assay type: cell-based, Candida albicans; details: peptoid 100 μM, 24 h; n=3
# Method: as §2
# as §6, with “sealed. Biofilm detachment was achieved by sonication for 5 min in an ultrasonic bath (Dawe, Hayes, Middlesex, UK). The remaining cells were then collected in BHI (80 μL).” for “sealed.”
# as §5
# [7] = tested on: C. albicans in polymicrobial biofilm with E. coli; assay: PMA-qPCR, C. albicans within C. albicans-E. coli polymicrobial biofilm; assay type: cell-based, Candida albicans
# Method: as §4, §6, §7
# [8] = tested on: C. albicans in polymicrobial biofilm with S. aureus; assay: PMA-qPCR, C. albicans within C. albicans-S. aureus polymicrobial biofilm; assay type: cell-based, Candida albicans
# Method: as §4
# as §6, with “sealed. Biofilm detachment was achieved by sonication for 5 min in an ultrasonic bath (Dawe, Hayes, Middlesex, UK). The remaining cells were then collected in BHI (80 μL).” for “sealed.”
# as §5
# HepG2 = assay: alamarBlue cytotoxicity assay, HepG2 cells
# Method: (§8) Peptoid cytotoxicity studies: All 18 peptoids were tested for cytotoxicity against HepG2 epithelial (Sigma–Aldrich) and HaCaT keratinocyte (ThermoFisher) cell lines, Cytotoxicity analyses were performed in Costar 96‐well plates (Thermo Fisher Scientific) with alamarBlue (Invitrogen/Thermo Fisher Scientific) for cell viability detection as described by the manufacturer. HepG2 and HaCaT cells were grown at 37 °C under CO2 (5 %) in DMEM (high glucose) supplemented with heat‐inactivated foetal bovine sera (FBS, 10 %; Biosera, Uckfield, UK) and penicillin/streptomycin (1 %). Cells were counted in a Neubauer Improved Haemocytometer. HepG2 or HaCaT cells were seeded 24 h prior to treatment in 96‐well plates (2×10^4 cells per well in 100 μL). After 24 h, cells were incubated in triplicate with a dilution series of compound (2–100 μM from 5 mM stock solutions in DMSO) in the medium (50 μL) for 1 h. An aliquot (40 μL) was removed from each well, before the addition of medium (90 μL) followed by incubation for 24 h (37 °C, 5 % CO2). Then, alamarBlue (10 μL) was added to each well before incubation (2 h for Hep G2, 1 h for HaCaT) prior to assessing cell viability in a fluorescent plate reader (Biotek, Winooski, VT; λ ex=560 nm, λ em=600 nm). All data were measured in triplicate on a minimum of two occasions.
# (§9) Toxicity was determined using an alamarBlue® cytotoxicity assay.
# [9] = tested on: E. coli in polymicrobial biofilm with C. albicans; assay: PMA-qPCR, E. coli within C. albicans-E. coli polymicrobial biofilm; assay type: cell-based, Escherichia coli
# Method: as §4, §6, §7
# [10] = tested on: E. coli (ATCC 29522) biofilm; assay: Crystal violet assay, E. coli monospecies biofilm; assay type: cell-based, Escherichia coli; details: peptoid 100 μM, 24 h treatment of 4 h biofilm; n=3
# Method: as §1, §2, §3
# HaCaT = assay: alamarBlue cytotoxicity assay, HaCaT keratinocytes
# Method: as §8, §9
# [11] = alamarBlue viability, 2-100 μM from DMSO stock, 1 h with compound then 24 h incubation at 37 °C, fluorescence, triplicate on a minimum of two occasions
substance,measurement,setting,value
(NahNspeNspe)3 [Peptoid 17],"Efficacy against C. albicans monospecies biofilm (biomass, crystal violet)",[1],amongst the most efficacious
same,Reduction of cell numbers of S. aureus in mixed-species biofilm,"[2]; peptoid 10 μM, 24 h",~100%
same,"Reduction in S. aureus cell numbers in cross-kingdom biofilm, concentration series",[2]; peptoid 10-100 μM,the greatest reduction in cell numbers
same,"Efficacy against S. aureus monospecies biofilm (biomass, crystal violet)",[3],amongst the most efficacious
same,"Reduction in viable cell number, S. aureus monospecies biofilm (PMA-qPCR)",[4],approximately two orders of magnitude
same,"Reduction in viable cell number, E. coli monospecies biofilm (PMA-qPCR)",[5],the most effective
same,"Reduction in viable cell number, C. albicans monospecies biofilm (PMA-qPCR)",[6],still caused a significant reduction in the fungal biofilm
same,Reduction in C. albicans cell number in mixed biofilm with E. coli (PMA-qPCR),"[7]; peptoid 100 μM, 24 h, n=3",the most active
same,"Reduction in C. albicans cell numbers in cross-kingdom biofilm with E. coli, concentration series","[7]; peptoid 10-100 μM, PMA-qPCR",the greatest reduction in cell numbers
same,Reduction in C. albicans cell number in mixed biofilm with S. aureus (PMA-qPCR),"[8]; peptoid 100 μM, 24 h, n=3",less susceptible
same,"Reduction in C. albicans cell numbers in cross-kingdom biofilm with S. aureus, concentration series","[8]; peptoid 10-100 μM, PMA-qPCR",the greatest reduction in cell numbers
same,ED50 HepG2,HepG2; [11],> 100 µM
same,Toxicity to HepG2 cells (in words),"HepG2; alamarBlue, up to 100 μM",negligible toxicity
same,Reduction in E. coli cell number in mixed biofilm with C. albicans (PMA-qPCR),"[9]; peptoid 100 μM, 24 h, n=3",the most active
same,"Reduction in E. coli cell numbers in cross-kingdom biofilm, concentration series","[9]; peptoid 10-100 μM, PMA-qPCR",the greatest reduction in cell numbers
same,"Efficacy against E. coli monospecies biofilm (biomass, crystal violet)",[10],amongst the most efficacious
same,ED50 HaCaT,HaCaT; [11],> 100 µM
same,Toxicity to HaCaT cells (in words),"HaCaT; alamarBlue, up to 100 μM",negligible toxicity
